Data taken from patent publication US11345762B2, “Method for preparing liquid medium composition, and preparation device and kit therefor” (NISSAN CHEMICAL INDUSTRIES, LTD., priority 2015, dated 2022).

How the values were obtained:
[1] = tested on: Human pancreatic cancer cell line Panc02,03; assay: Proliferation action on Panc02,03 cell stimulated by each growth factor (ATP, CellTiter-Glo); format: cell-based
[2] = tested on: Human lung cancer cell line A549; assay: A549 cell proliferation suppressive test with anticancer agents in low adhesion plate (ATP, CellTiter-Glo); format: cell-based
Method: Deacylated gellan gum (KELCOGEL CG-LA, manufactured by Sansho Co., Ltd.) was suspended in ultra pure water (Milli-Q water) to 0.3% (w/v) or 0.75% (w/v), dissolved by stirring with heating at 90° C., and this aqueous solution was autoclave sterilized at 121° C. for 20 min. Using 0.3% solution, a medium composition was prepared by adding deacylated gellan gum (final concentration 0.015% (w/v)) to DMEM medium (manufactured by WAKO) containing 10% (v/v) fetal bovine serum. Fetal bovine serum was added at 10% (v/v) to a medium composition prepared in Example 7.
Human lung cancer cell line A549 (manufactured by DS PHARMA BIOMEDICAL) was seeded in the above-mentioned medium composition added with deacylated gellan gum (conventional method) or the medium composition of Example 7 at 14800 cells/mL, and dispensed to the wells of a 96 well flat bottom ultra-low adhesive surface microplate (Corning Incorporated manufactured by, #3474) at 135 μL per […]. As a negative control, A549 cells were suspended in the above-mentioned medium free of deacylated gellan gum and dispensed. Each plate was cultured in a static state in a CO2 incubator (37° C., 5% CO2). On day 1 of culture, medium compositions (conventional method and the production method of the present invention) containing each anticancer agent at 10-fold concentration and deacylated gellan gum (final concentration 0.015% (w/v)), and a medium composition containing each anticancer agent alone at 10-fold concentration (non-addition method), 15 μL each, was added to a final concentration of 0.001 to 30 μM, and culture was continued for 7 days. As the anticancer agent, Trametinib (manufactured by Santa Cruz, MEK inhibitor) and MK-2206 (manufactured by Santa Cruz, Akt inhibitor) were used. ATP reagent (150 μL, CellTiter-Glo™ Luminescent Cell Viability Assay, manufactured by Promega) was added to the culture media on days 5 and 8 and suspended therein, stood for about 10 min at room temperature, and the luminescence intensity (RLU value) was measured by FlexStation3 (manufactured by Molecular Devices), from which the luminescence with the medium alone was subtracted to measure the number of viable cells.

Compound: human IGF-1: growth factor, manufactured by PEPROTECH
- % control of RLU value (ATP measurement, luminescence intensity) ([1]; Panc02,03, 10 ng/mL, medium composition of Example 13, on day 6 (head)): 100 % Control
- % control of RLU value (ATP measurement, luminescence intensity) ([1]; Panc02,03, 10 ng/mL, monolayer culture group, culture conditions on day 6 (head)): 101 % Control
- % control of RLU value (ATP measurement, luminescence intensity) ([1]; Panc02,03, 10 ng/mL, negative control group (medium free of deacylated gellan gum, low adhesion plate), on day 6 (head)): 119 % Control
- % control of RLU value (ATP measurement, luminescence intensity) ([1]; Panc02,03, 100 ng/mL, medium composition of Example 13, on day 6 (head)): 110 % Control
- % control of RLU value (ATP measurement, luminescence intensity) ([1]; Panc02,03, 100 ng/mL, monolayer culture group, culture conditions on day 6 (head)): 98 % Control
- % control of RLU value (ATP measurement, luminescence intensity) ([1]; Panc02,03, 100 ng/mL, negative control group (medium free of deacylated gellan gum, low adhesion plate), on day 6 (head)): 121 % Control

Compound: NC1(c2ccc(-c3nc4ccn5c(=O)[nH]nc5c4cc3-c3ccccc3)cc2)CCC1 [MK-2206]
- % control of RLU value (ATP measurement, luminescence intensity) ([2]; A549, day 4 of static culture, 0.03 μM, conventional method): 100 % Control
- % control of RLU value (ATP measurement, luminescence intensity) ([2]; A549, day 4 of static culture, 0.03 μM, non-addition method): 108 % Control
- % control of RLU value (ATP measurement, luminescence intensity) ([2]; A549, day 4 of static culture, 0.03 μM, production method of present invention): 85 % Control
- % control of RLU value (ATP measurement, luminescence intensity) ([2]; A549, day 4 of static culture, 0.1 μM, conventional method): 91 % Control
- % control of RLU value (ATP measurement, luminescence intensity) ([2]; A549, day 4 of static culture, 0.1 μM, non-addition method): 99 % Control
- % control of RLU value (ATP measurement, luminescence intensity) ([2]; A549, day 4 of static culture, 0.1 μM, production method of present invention): 74 % Control
- % control of RLU value (ATP measurement, luminescence intensity) ([2]; A549, day 4 of static culture, 0.3 μM, conventional method): 71 % Control
- % control of RLU value (ATP measurement, luminescence intensity) ([2]; A549, day 4 of static culture, 0.3 μM, non-addition method): 93 % Control
- % control of RLU value (ATP measurement, luminescence intensity) ([2]; A549, day 4 of static culture, 0.3 μM, production method of present invention): 60 % Control
- % control of RLU value (ATP measurement, luminescence intensity) ([2]; A549, day 4 of static culture, 1 μM, conventional method): 50 % Control
- % control of RLU value (ATP measurement, luminescence intensity) ([2]; A549, day 4 of static culture, 1 μM, non-addition method): 78 % Control
- % control of RLU value (ATP measurement, luminescence intensity) ([2]; A549, day 4 of static culture, 1 μM, production method of present invention): 43 % Control
- % control of RLU value (ATP measurement, luminescence intensity) ([2]; A549, day 4 of static culture, 3 μM, conventional method): 38 % Control
- % control of RLU value (ATP measurement, luminescence intensity) ([2]; A549, day 4 of static culture, 3 μM, non-addition method): 62 % Control
- % control of RLU value (ATP measurement, luminescence intensity) ([2]; A549, day 4 of static culture, 3 μM, production method of present invention): 33 % Control
- % control of RLU value (ATP measurement, luminescence intensity) ([2]; A549, day 7 of static culture, 0.03 μM, conventional method): 92 % Control
- % control of RLU value (ATP measurement, luminescence intensity) ([2]; A549, day 7 of static culture, 0.03 μM, non-addition method): 124 % Control
- % control of RLU value (ATP measurement, luminescence intensity) ([2]; A549, day 7 of static culture, 0.03 μM, production method of present invention): 80 % Control
- % control of RLU value (ATP measurement, luminescence intensity) ([2]; A549, day 7 of static culture, 0.1 μM, conventional method): 83 % Control
- % control of RLU value (ATP measurement, luminescence intensity) ([2]; A549, day 7 of static culture, 0.1 μM, non-addition method): 101 % Control
- % control of RLU value (ATP measurement, luminescence intensity) ([2]; A549, day 7 of static culture, 0.1 μM, production method of present invention): 69 % Control
- % control of RLU value (ATP measurement, luminescence intensity) ([2]; A549, day 7 of static culture, 0.3 μM, conventional method): 63 % Control
- % control of RLU value (ATP measurement, luminescence intensity) ([2]; A549, day 7 of static culture, 0.3 μM, non-addition method): 103 % Control
- % control of RLU value (ATP measurement, luminescence intensity) ([2]; A549, day 7 of static culture, 0.3 μM, production method of present invention): 54 % Control
- % control of RLU value (ATP measurement, luminescence intensity) ([2]; A549, day 7 of static culture, 1 μM, conventional method): 38 % Control
- % control of RLU value (ATP measurement, luminescence intensity) ([2]; A549, day 7 of static culture, 1 μM, non-addition method): 85 % Control
- % control of RLU value (ATP measurement, luminescence intensity) ([2]; A549, day 7 of static culture, 1 μM, production method of present invention): 34 % Control
- % control of RLU value (ATP measurement, luminescence intensity) ([2]; A549, day 7 of static culture, 3 μM, conventional method): 26 % Control
- % control of RLU value (ATP measurement, luminescence intensity) ([2]; A549, day 7 of static culture, 3 μM, non-addition method): 76 % Control
- % control of RLU value (ATP measurement, luminescence intensity) ([2]; A549, day 7 of static culture, 3 μM, production method of present invention): 21 % Control
- efficacy on A549 cell proliferation in the medium composition of the present invention (in words) ([2]; A549, medium composition of the present invention): strong efficacy
